# In the NIST ThermoML archive (doi:10.1021/je400487e):
# ± gives the expanded uncertainty stated by the source.
# Settings: 298.15 K; 101.33 kPa; Liquid; Vibrating tube method
row,SMILES,mass density [kg/m3]
1,"CC(=O)N(C)C [N,N-dimethylethanamide]",936.88 ± 0.26
2,C1CCCCCCC1 [cyclooctane],831.87 ± 0.26
3,CCCCCCCCCC [decane],726.43 ± 0.26
4,"CC(C)CC(C)(C)C [2,2,4-trimethylpentane]",687.77 ± 0.26

# Second part, the compound after the results:
row,mass density [kg/m3],SMILES
1,759.27 ± 0.26,CCCCCCCCCCCCCC [tetradecane]
2,741.54 ± 0.26,CCCCCCCCCCCC [dodecane]
3,764.86 ± 0.26,CC1CCCCC1 [methylcyclohexane]
